Source: ChEMBL document CHEMBL1135456, “Inhibition of MIF bioactivity by rational design of pharmacological inhibitors of MIF tautomerase activity” (J Med Chem, 2002)

Target: T1, Macrophage migration inhibitory factor (Homo sapiens, UniProt P14174)
T1 sequence (P14174 whole entry): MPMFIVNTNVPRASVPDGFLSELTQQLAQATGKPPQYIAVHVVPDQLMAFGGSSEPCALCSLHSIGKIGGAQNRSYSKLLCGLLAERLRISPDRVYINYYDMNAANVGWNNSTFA
Assay: Inhibition of human macrophage migration inhibitory factor tautomerase (MIF) activity

| Structure (SMILES) | IC50 [µM] |
| --- | --- |
| COC(=O)[C@H](CC(C)C)/N=C/c1ccc(O)cc1 | > 100 |
| COC(=O)[C@H](C)/N=C/c1ccc(O)cc1 | > 100 |
| COC(=O)[C@H](CO)/N=C/c1ccc(O)cc1 | 100 |
| CC[C@H](/N=C/c1ccc(O)cc1)C(=O)OC | 70 |
| COC(=O)[C@H](CCSC)/N=C/c1ccc(O)cc1 | 100 |
| COC(=O)[C@@H](Cc1ccc(O)cc1)/N=C/c1ccc(O)cc1 | 10 |
| COC(=O)[C@@H](Cc1ccccc1)/N=C/c1ccc(O)cc1 | 50 |
